Results from the NIST ThermoML archive (doi:10.1016/j.jct.2018.09.026).

Assay: mn = molality of the nth substance listed, in mol/kg
Details: 100 kPa, Liquid; for speed of sound: Frequency=3 MHz, Single path-length method; for mass density: Vibrating tube method

CNCCC=C1c2ccccc2CCc2ccccc21.Cl + O
Details	mass density, 288.15 K [kg/m3]	mass density, 293.15 K [kg/m3]	mass density, 298.15 K [kg/m3]	mass density, 303.15 K [kg/m3]	mass density, 308.15 K [kg/m3]	speed of sound, 288.15 K [m/s]	speed of sound, 293.15 K [m/s]	speed of sound, 298.15 K [m/s]	speed of sound, 303.15 K [m/s]	speed of sound, 308.15 K [m/s]
m1 = 0.025	1000.19	999.27	998.086	996.667	995.032	1471.8	1487.4	1501.2	1513.2	1523.6
m1 = 0.05	1001.25	1000.3	999.096	997.655	995.999	1475.9	1491.2	1504.8	1516.7	1526.8
m1 = 0.075	1002.26	1001.3	1000.07	998.612	996.941	1478.3	1493.7	1507.2	1519	1529.1
